Reference: patent US11524968B2, “Heterocyclic compound as a protein kinase inhibitor” (HK inno.N Corporation, priority 2017, dated 2022)
Where two headings read alike, the source gives them in different places.

Target: JAK1 (Homo sapiens (Human), UniProt P23458)
Assay: Analysis of JAK1 activity inhibition ability (ADP-Glo Kinase Assay)
Format: biochemical
How it was run: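 JAK1 enzyme, IRS-itide substrate (40 ng/mL) and 250 uM ATP, both as prepared in kinase buffer (Tris-HCl pH 7.5, MgCl2, BSA, DTT), reacted with compound 40 min at 30 °C. ADP formed was detected by ADP-Glo luminescence; IC50 is the concentration giving 50% inhibition versus control.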

[1] = JAK1 enzyme, ADP-Glo luminescence, ATP 250 uM, IRS-itide substrate, 30° C. 40 minutes, read-out: IC50

JAK1, sequence (P23458 whole entry): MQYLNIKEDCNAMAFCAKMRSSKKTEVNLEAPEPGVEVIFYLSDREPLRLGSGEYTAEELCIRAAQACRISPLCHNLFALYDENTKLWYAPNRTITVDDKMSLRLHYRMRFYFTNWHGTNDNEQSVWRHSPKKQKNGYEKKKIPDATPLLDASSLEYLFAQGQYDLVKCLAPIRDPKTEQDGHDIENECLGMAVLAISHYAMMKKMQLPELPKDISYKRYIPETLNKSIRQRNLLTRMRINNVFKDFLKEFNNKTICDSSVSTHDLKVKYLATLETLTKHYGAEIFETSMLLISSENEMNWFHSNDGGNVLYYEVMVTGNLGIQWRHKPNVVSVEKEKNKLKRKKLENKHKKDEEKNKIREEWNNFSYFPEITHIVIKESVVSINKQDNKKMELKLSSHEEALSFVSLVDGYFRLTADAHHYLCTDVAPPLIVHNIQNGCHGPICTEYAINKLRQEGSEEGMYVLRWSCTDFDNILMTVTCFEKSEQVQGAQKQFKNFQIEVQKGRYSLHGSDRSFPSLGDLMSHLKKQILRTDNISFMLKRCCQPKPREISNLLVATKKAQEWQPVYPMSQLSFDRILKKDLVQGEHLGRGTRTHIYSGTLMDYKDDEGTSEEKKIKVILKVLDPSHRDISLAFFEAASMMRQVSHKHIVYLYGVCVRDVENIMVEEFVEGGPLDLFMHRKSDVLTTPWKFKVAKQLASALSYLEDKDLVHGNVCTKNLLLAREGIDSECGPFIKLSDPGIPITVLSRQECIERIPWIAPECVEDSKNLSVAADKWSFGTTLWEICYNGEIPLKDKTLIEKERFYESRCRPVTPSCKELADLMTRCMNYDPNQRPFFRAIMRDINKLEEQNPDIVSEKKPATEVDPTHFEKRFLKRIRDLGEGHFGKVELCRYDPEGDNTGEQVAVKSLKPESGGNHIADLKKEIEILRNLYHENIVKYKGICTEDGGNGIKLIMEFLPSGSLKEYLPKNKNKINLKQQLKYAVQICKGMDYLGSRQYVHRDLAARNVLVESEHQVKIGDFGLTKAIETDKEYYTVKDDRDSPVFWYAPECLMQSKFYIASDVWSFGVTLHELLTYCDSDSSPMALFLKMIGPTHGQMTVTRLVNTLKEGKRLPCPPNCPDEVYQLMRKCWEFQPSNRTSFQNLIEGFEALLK

Structure (SMILES) | IC50 [1] [nM] | IC50 [nM]
Cc1cc(C(=O)N2CCOCC2)ccc1-c1cc(NC(=O)C2CC2)nc2[nH]ccc12 [Example 522, N-(4-(2-methyl-4-(morpholine-4-carbonyl)phenyl)-1H-pyrrolo[2,3-b]pyridin-6-yl)cyclopropanecarboxamide] | 20 to 200 | 
N#CCNC(=O)c1ccc(-c2cc(NC(=O)C3CC3)nc3[nH]ccc23)cc1 [Example 523, N-(cyanomethyl)-4-(6-(cyclopropanecarboxamido)-1H-pyrrolo[2,3-b]pyridin-4-yl)benzamide] | < 20 | 
O=C(NCC(F)(F)F)c1ccc(-c2cc(NC(=O)C3CC3)nc3[nH]ccc23)cc1 [Example 524, 4-(6-(cyclopropanecarboxamido)-1H-pyrrolo[2,3-b]pyridin-4-yl)-N-(2,2,2-trifluoroethyl)benzamide] | < 20 | 
Cc1cc(C(=O)NCC(F)(F)F)ccc1-c1cc(NC(=O)C2CC2)nc2[nH]ccc12 [Example 525, 4-(6-(cyclopropanecarboxamido)-1H-pyrrolo[2,3-b]pyridin-4-yl)-3-methyl-N-(2,2,2-trifluoroethyl)benzamide] | 20 to 200 | 
Cc1cc(C(=O)NCC#N)ccc1-c1cc(NC(=O)C2CC2)nc2[nH]ccc12 [Example 526, N-(cyanomethyl)-4-(6-(cyclopropanecarboxamido)-1H-pyrrolo[2,3-b]pyridin-4-yl)-3-methylbenzamide] | 20 to 200 | 
Cc1cc(C(=O)N(C)CC#N)ccc1-c1cc(NC(=O)C2CC2)nc2[nH]ccc12 [Example 527, N-(cyanomethyl)-4-(6-(cyclopropanecarboxamido)-1H-pyrrolo[2,3-b]pyridin-4-yl)-N,3-dimethylbenzamide] | > 200 | 
N#CCNC(=O)c1ccc(-c2cc(NC(=O)C3CC3)nc3[nH]ccc23)cc1F [Example 528, N-(cyanomethyl)-4-(6-(cyclopropanecarboxamido)-1H-pyrrolo[2,3-b]pyridin-4-yl)-2-fluorobenzamide] | 20 to 200 | 
N#CCNC(=O)c1c(F)cc(-c2cc(NC(=O)C3CC3)nc3[nH]ccc23)cc1F [Example 529, N-(cyanomethyl)-4-(6-(cyclopropanecarboxamido)-1H-pyrrolo[2,3-b]pyridin-4-yl)-2,6-difluorobenzamide] | 20 to 200 | 
N#CCNC(=O)C1CC=C(c2cc(NC(=O)C3CC3)nc3[nH]ccc23)CC1 (stereo not shown) [Example 530, N-(cyanomethyl)-4-(6-(cyclopropanecarboxamido)-1H-pyrrolo[2,3-b]pyridin-4-yl)cyclohex-3-ene-1-carboxamide] | 20 to 200 | 
O=C(NCC(F)(F)F)C1CC=C(c2cc(NC(=O)C3CC3)nc3[nH]ccc23)CC1 (stereo not shown) [Example 531, 4-(6-(cyclopropanecarboxamido)-1H-pyrrolo[2,3-b]pyridin-4-yl)-N-(2,2,2-trifluoroethyl)cyclohex-3-ene-1-carboxamide] | 20 to 200 | 
N#CCCNC(=O)C1CC=C(c2cc(NC(=O)C3CC3)nc3[nH]ccc23)CC1 (stereo not shown) [Example 532, N-(2-cyanoethyl)-4-(6-(cyclopropanecarboxamido)-1H-pyrrolo[2,3-b]pyridin-4-yl)cyclohex-3-ene-1-carboxamide] | 20 to 200 | 
CNS(=O)(=O)Cc1ccc(-c2cc(NC(=O)C3CC3)nc3[nH]ccc23)cc1 [Example 533, N-(4-(4-((N-methylsulfamoyl)methyl)phenyl)-1H-pyrrolo[2,3-b]pyridin-6-yl)cyclopropanecarboxamide] | 20 to 200 | 
O=C(Nc1cc(-c2ccc(CS(=O)(=O)N3CCOCC3)cc2)c2cc[nH]c2n1)C1CC1 [Example 534, N-(4-(4-((morpholinosulfonyl)methyl)phenyl)-1H-pyrrolo[2,3-b]pyridin-6-yl)cyclopropanecarboxamide] | > 200 | 
O=C(Nc1cc(-c2ccc(CC(=O)N3CCS(=O)(=O)CC3)cc2)c2cc[nH]c2n1)C1CC1 [Example 535, N-(4-(4-(2-(1,1-dioxidothiomorpholino)-2-oxoethyl)phenyl)-1H-pyrrolo[2,3-b]pyridin-6-yl)cyclopropanecarboxamide] | 20 to 200 | 
O=C(Nc1cc(-c2ccc(CC(=O)N3CCOCC3)cc2)c2cc[nH]c2n1)C1CC1 [Example 536, N-(4-(4-(2-morpholino-2-oxoethyl)phenyl)-1H-pyrrolo[2,3-b]pyridin-6-yl)cyclopropanecarboxamide] | 20 to 200 | 
O=C(Cc1ccc(-c2cc(NC(=O)C3CC3)nc3[nH]ccc23)cc1)NCC(F)(F)F [Example 537, N-(4-(4-(2-oxo-2-((2,2,2-trifluoroethyl)amino)ethyl)phenyl)-1H-pyrrolo[2,3-b]pyridin-6-yl)cyclopropanecarboxamide] | 20 to 200 | 
O=C(Cc1ccc(-c2cc(NC(=O)C3CC3)nc3[nH]ccc23)cc1)NC1CCS(=O)(=O)C1 (stereo not shown) [Example 538, N-(4-(4-(2-((1,1-dioxidotetrahydrothiophen-3-yl)amino)-2-oxoethyl)phenyl)-1H-pyrrolo[2,3-b]pyridin-6-yl)cyclopropanecarboxamide] | 20 to 200 | 

Structure (SMILES) | IC50 [1] [nM] | IC50 [nM]
CNC(=O)Cc1ccc(-c2cc(NC(=O)C3CC3)nc3[nH]ccc23)cc1 [Example 539, N-(4-(4-(2-(methylamino)-2-oxoethyl)phenyl)-1H-pyrrolo[2,3-b]pyridin-6-yl)cyclopropanecarboxamide] | 20 to 200 | 
CN(C)C(=O)Cc1ccc(-c2cc(NC(=O)C3CC3)nc3[nH]ccc23)cc1 [Example 540, N-(4-(4-(2-(dimethylamino)-2-oxoethyl)phenyl)-1H-pyrrolo[2,3-b]pyridin-6-yl)cyclopropanecarboxamide] | 20 to 200 | 
CCNC(=O)Cc1ccc(-c2cc(NC(=O)C3CC3)nc3[nH]ccc23)cc1 [Example 541, N-(4-(4-(2-(ethylamino)-2-oxoethyl)phenyl)-1H-pyrrolo[2,3-b]pyridin-6-yl)cyclopropanecarboxamide] | 20 to 200 | 
CS(=O)(=O)N1CCN(C(=O)Cc2ccc(-c3cc(NC(=O)C4CC4)nc4[nH]ccc34)cc2)CC1 [Example 542, N-(4-(4-(2-(4-(methylsulfonyl)piperazin-1-yl)-2-oxoethyl)phenyl)-1H-pyrrolo[2,3-b]pyridin-6-yl)cyclopropanecarboxamide] | < 20 | 
CC(=O)N1CCN(C(=O)Cc2ccc(-c3cc(NC(=O)C4CC4)nc4[nH]ccc34)cc2)CC1 [Example 543, N-(4-(4-(2-(4-acetylpiperazin-1-yl)-2-oxoethyl)phenyl)-1H-pyrrolo[2,3-b]pyridin-6-yl)cyclopropanecarboxamide] | > 200 | 
O=C(Cc1ccc(-c2cc(NC(=O)C3CC3)nc3[nH]ccc23)cc1)Nc1ccon1 [Example 544, N-(4-(4-(2-(isoxazol-3-ylamino)-2-oxoethyl)phenyl)-1H-pyrrolo[2,3-b]pyridin-6-yl)cyclopropanecarboxamide] | 20 to 200 | 
Cc1cc(CC(=O)N2CCS(=O)(=O)CC2)ccc1-c1cc(NC(=O)C2CC2)nc2[nH]ccc12 [Example 545, N-(4-(4-(2-(1,1-dioxidothiomorpholino)-2-oxoethyl)-2-methylphenyl)-1H-pyrrolo[2,3-b]pyridin-6-yl)cyclopropanecarboxamide] | 20 to 200 | 
O=C(Nc1cc(-c2ccc(CC(=O)N3CCC3)cc2)c2cc[nH]c2n1)C1CC1 [Example 546, N-(4-(4-(2-(azetidin-1-yl)-2-oxoethyl)phenyl)-1H-pyrrolo[2,3-b]pyridin-6-yl)cyclopropanecarboxamide] | 20 to 200 | 
O=C(Nc1cc(-c2ccc(CC(=O)N3CCCC3)cc2)c2cc[nH]c2n1)C1CC1 [Example 547, N-(4-(4-(2-oxo-2-(pyrrolidin-1-yl)ethyl)phenyl)-1H-pyrrolo[2,3-b]pyridin-6-yl)cyclopropanecarboxamide] | 20 to 200 | 
N#CC1CCN(C(=O)Cc2ccc(-c3cc(NC(=O)C4CC4)nc4[nH]ccc34)cc2)CC1 [Example 548, N-(4-(4-(2-(4-cyanopiperidin-1-yl)-2-oxoethyl)phenyl)-1H-pyrrolo[2,3-b]pyridin-6-yl)cyclopropanecarboxamide] | 20 to 200 | 
O=C1CCN(C(=O)Cc2ccc(-c3cc(NC(=O)C4CC4)nc4[nH]ccc34)cc2)CC1 [Example 549, N-(4-(4-(2-oxo-2-(4-oxopiperidin-1-yl)ethyl)phenyl)-1H-pyrrolo[2,3-b]pyridin-6-yl)cyclopropanecarboxamide] |  | 20 to 200
CN1CCN(C(=O)Cc2ccc(-c3cc(NC(=O)C4CC4)nc4[nH]ccc34)cc2)CC1 [Example 550, N-(4-(4-(2-(4-methylpiperazin-1-yl)-2-oxoethyl)phenyl)-1H-pyrrolo[2,3-b]pyridin-6-yl)cyclopropanecarboxamide] | 20 to 200 | 
CCN1CCN(C(=O)Cc2ccc(-c3cc(NC(=O)C4CC4)nc4[nH]ccc34)cc2)CC1 [Example 551, N-(4-(4-(2-(4-ethylpiperazin-1-yl)-2-oxoethyl)phenyl)-1H-pyrrolo[2,3-b]pyridin-6-yl)cyclopropanecarboxamide] | > 200 | 
CC(C)N1CCN(C(=O)Cc2ccc(-c3cc(NC(=O)C4CC4)nc4[nH]ccc34)cc2)CC1 [Example 552, N-(4-(4-(2-(4-isopropylpiperazin-1-yl)-2-oxoethyl)phenyl)-1H-pyrrolo[2,3-b]pyridin-6-yl)cyclopropanecarboxamide] | > 200 | 
N#CCCNC(=O)Cc1ccc(-c2cc(NC(=O)C3CC3)nc3[nH]ccc23)cc1 [Example 553, N-(4-(4-(2-((2-cyanoethyl)amino)-2-oxoethyl)phenyl)-1H-pyrrolo[2,3-b]pyridin-6-yl)cyclopropanecarboxamide] | 20 to 200 | 
CC(C)(C)OC(=O)N1CCN(C(=O)Cc2ccc(-c3cc(NC(=O)C4CC4)nc4[nH]ccc34)cc2)CC1 [Example 554, tert-butyl 4-(2-(4-(6-(cyclopropanecarboxamido)-1H-pyrrolo[2,3-b]pyridin-4-yl)phenyl)acetyl)piperazine-1-carboxylate] | 20 to 200 | 
CC(C)(C)OC(=O)N1CCCC(NC(=O)Cc2ccc(-c3cc(NC(=O)C4CC4)nc4[nH]ccc34)cc2)C1 (stereo not shown) [Example 555, tert-butyl 3-(2-(4-(6-(cyclopropanecarboxamido)-1H-pyrrolo[2,3-b]pyridin-4-yl)phenyl)acetamido)piperidine-1-carboxylate] | > 200 | 
